Results taken from patent publication US20130130305A1, “IN[…] THAT INHIBIT IAA OR A YAP FAMILY” (priority 2010, published 2013).

Key:
C. albicans [1] = assay: IAA-induced filamentation in C. albicans; format: cell-based, Candida albicans
Procedure: (§1) Analytical and phenotypic studies were performed in cognate deletion mutants, made in the Σ1278b background. A [^14C]Trp incorporation assay was performed to verify that phenotype observed in the library strain could be recapitulated in the newly constructed E1278b strain. Typically three independent transformants were isolated, confirmed by PCR and used for further studies. Standard culture conditions were used (Sherman et al., Laboratory Course Manual for Methods in Yeast Genetics, Cold Spring Harbor Laboratories Press, Cold Spring Harbor, N.Y., 1986) and analysis of IAA-associated phenotypes were performed as described earlier (Prusty et al., Proc. Natl. Acad. Sci. USA 101:4153-4157, 2004).
IAA induces filamentation in C. albicans: The effects of the secondary metabolites identified in fungi appear to be largely species specific (Chen and Fink, Genes Dev. 20:1150-1161, 2006). […] To test whether the IAA effects could cross species barriers, we exposed wild-type C. albicans, a human pathogen, as well as attenuated mutants in the mitogen-activated protein (MAP) kinase and the cAMP-dependent protein kinase pathways to IAA. […] The cph1Δ/Δefg1Δ/Δ double mutant, which is nonfilamentous under standard laboratory conditions and avirulent in mice, filaments in the oral cavity of immunosuppressed piglets and when embedded in agar (Riggle et al., Infect. Immun. 67:3649-3652, 1999).

C. albicans [2] = assay: Growth on media containing IAA (IAA sensitivity) of C. albicans CAP1 deletion mutants; format: cell-based, Candida albicans
Procedure: as §1
To test if other aspects of IAA regulation in S. cerevisiae were also conserved in C. albicans, we tested Cap1, the C. albicans homolog of Yap, for its sensitivity to IAA.

S. cerevisiae = assay: IAA-associated growth inhibition phenotype in S. cerevisiae ald mutants; format: cell-based, Saccharomyces cerevisiae
Procedure: as §1
The ability of a fungus to perceive a small molecule signal that causes it to differentiate into an invasive form has important implications for host-pathogen interactions. To test the hypothesis that mutants with aberrant IAA accumulation also affect dimorphism, we examined diploid filamentation and haploid invasive growth in all ald single mutants and selected combinations of double mutants. […] We also tested a previously reported growth inhibition phenotype associated with exposure to IAA. […] However, these phenotypes are consistent with ald2Δald3Δ mutants producing more IAA than isogenic wild-type strains.

O=C(O)Cc1c[nH]c2ccccc12 [IAA, indole-3-acetic acid]
filamentation (C. albicans [1]; single mutants efg1Δ/Δ or cph1Δ/Δ, exposed to IAA): showed a robust filamentation | filamentation (C. albicans [1]; wild-type strains, treated with IAA vs untreated cells): filamented more | growth on media containing IAA (C. albicans [2]; heterozygous and homozygous CAP1 deletion mutants vs isogenic wild type): grew less well | sensitivity to IAA (C. albicans [2]; heterozygous cap1Δ/+ vs wild-type CAP1+/+ or homozygous cap1Δ/Δ): intermediate sensitivity | sensitivity to IAA (growth inhibition) (S. cerevisiae; deletion of both ald2 and ald3 vs wild-type cells): increase in sensitivity to IAA | sensitivity to IAA (growth inhibition) (S. cerevisiae; single deletion of an ALD gene vs wild-type cells): did not affect IAA sensitivity
